Results taken from the supplement of paper PMC4862054.

How the values were obtained:
Assay in all cases: normalised response (% of control), CellTiter-Glo; higher = more viable cells (100 = DMSO, 0 = benzethonium chloride kill control)
Settings in all cases: incubation time: 72 h
MFM-223 = system: MFM-223
Summary of the method: (§1)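 A 20 µl suspension of breast cancer cells was seeded into each well of 384-well plates containing compound at 5 concentrations in 10-fold steps over a compound-specific 10,000-fold range. After 72 h incubation, CellTox Green fluorescence (485/520 nm) was read first, and CellTiter-Glo luminescence was read after 10 min at room temperature. Each plate was normalised against 0.1 % DMSO (100) and a positive kill control (0), and each value is the normalised signal at one concentration.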

BT-474 = system: BT-474
Summary of the method: as §1

MDA-MB-231 = system: MDA-MB-231
Summary of the method: as §1

MCF-10A = system: MCF-10A
Summary of the method: as §1

CAL-85-1 = system: CAL-85-1
Summary of the method: as §1

CAL-51 = system: CAL-51
Summary of the method: as §1

CAL-148 = system: CAL-148
Summary of the method: as §1

MDA-MB-436 = system: MDA-MB-436
Summary of the method: as §1

HDQ-P1 = system: HDQ-P1
Summary of the method: as §1

CAL-120 = system: CAL-120
Summary of the method: as §1

MDA-MB-453 = system: MDA-MB-453
Summary of the method: as §1

HCC1937 = system: HCC1937
Summary of the method: as §1

HCC1599 = system: HCC1599
Summary of the method: as §1

MDA-MB-468 = system: MDA-MB-468
Summary of the method: as §1

DU-4475 = system: DU-4475
Summary of the method: as §1

BT-549 = system: BT-549
Summary of the method: as §1

HCC1143 = system: HCC1143
Summary of the method: as §1

Hs578T = system: Hs578T
Summary of the method: as §1

SK-BR-3 = system: SK-BR-3
Summary of the method: as §1

Structure (SMILES)	normalised response (MFM-223) [%]	normalised response (BT-474) [%]	normalised response (MDA-MB-231) [%]	normalised response (MCF-10A) [%]	normalised response (CAL-85-1) [%]	normalised response (CAL-51) [%]	normalised response (CAL-148) [%]	normalised response (MDA-MB-436) [%]	normalised response (HDQ-P1) [%]	normalised response (CAL-120) [%]	normalised response (MDA-MB-453) [%]	normalised response (HCC1937) [%]	normalised response (HCC1599) [%]	normalised response (MDA-MB-468) [%]	normalised response (DU-4475) [%]	normalised response (BT-549) [%]	normalised response (HCC1143) [%]	normalised response (Hs578T) [%]	normalised response (SK-BR-3) [%]
Nc1nc(Cl)nc2c1ncn2[C@@H]1O[C@H](CO)[C@@H](O)[C@@H]1F [Clofarabine] (10 nM)	101	102	93.5	105	105	72.2	107	95.1	96.8	101	91.3	95.8	95.2	98.9	102	98.3	102	105	
CCN(CC)CCOc1ccc(C(=C(Cl)c2ccccc2)c2ccccc2)cc1 [Clomifene] (10 nM)	102	107	105	107	99.9	122	102	101	100	106	112	111	96.3	99.2	103	99.5	104	103	
C[C@@H]1C[C@H]2[C@@H]3CCC4=CC(=O)C=C[C@]4(C)[C@@]3(F)[C@@H](O)C[C@]2(C)[C@@]1(O)C(=O)CO [Dexamethasone] (10 nM)	95.2	130	137	94	116	113	100	102	89.8	83.2	95.2	97.5	100	97.9	101	97.4	103	104	
CCc1cnn2c(NCc3ccc[n+]([O-])c3)cc(N3CCCC[C@H]3CCO)nc12 [Dinaciclib] (0.1 nM)	100	97.1	98.5	106	98.4	82.8	110	99.3	104	99.6	99	102	103	93.8	102	109	102	99	103
CCc1cnn2c(NCc3ccc[n+]([O-])c3)cc(N3CCCC[C@H]3CCO)nc12 [Dinaciclib] (1 nM)	103	95.7	98.3	102	101	82.1	115	98.5	104	99.6	103	98.5	101	97.8	97.8	92.5	107	109	
CC(C)NC[C@@H](C(=O)N1CCN(c2ncnc3c2[C@H](C)C[C@H]3O)CC1)c1ccc(Cl)cc1 [GDC-0068] (10 nM)	98.8	96.8	110	103	95.6	108	96.8	94.4	96.1	99.8	91.1	97	90.8	95.7	105	98.2	103	100	
COc1cc2c(cc1-c1c(C)noc1C)ncc1[nH]c(=O)n([C@H](C)c3ccccn3)c12 [I-BET151] (10 nM)	103	98	105	108	99.4	94.3	111	101	97.9	100	91.7	98.5	100	99.2	103	91.9	107	99	
COc1cc2c(N3CCN(C(=O)Nc4ccc(OC(C)C)cc4)CC3)ncnc2cc1OCCCN1CCCCC1 [Tandutinib] (1 nM)	103	99.9	101	99.8	107	118	101	107	103	104	95.1	99	90.9	102	102	94.9	103	98.6	
C[C@@H](C(=O)O)c1ccc(-c2ccccc2)c(F)c1 [Tarenflurbil] (10 nM)	93.7	90.8	94.6	97.5	95.3	123	92.2	105	98	96.7	94.9	101	106	86.7	97	94.5	101	104	
Cn1nnc2c(C(N)=O)ncn2c1=O [Temozolomide] (10 nM)	97.5	97	99.5	92.1	103	110	102	101	96.7	97.9	98	95.8	88.7	97	99.4	102	98.5	100	
